In patent publication US4443436A, “C-20-Modified macrolide derivatives of the macrolide antibiotics tylosin, desmycosin, macrocin, and lactenocin” (Eli Lilly and Company, priority 1982, dated 1984):
In brackets after ≈: the same amount, converted by molar mass. Like-named read-outs stand apart in the source and are kept apart here.

Legend:
[1] = system: Pasteurella multocida 60A; assay: MIC, broth-dilution microtiter test, Pasteurella multocida 60A; assay type: cell-based
Excerpt: (§1) The MIC's in Table X were obtained using conventional broth-dilution microtiter tests.

[2] = system: Staphylococcus aureus S13E; assay: MIC, standard agar-dilution assay, Staphylococcus aureus S13E; assay type: cell-based
Staphylococcus aureus = assay: MIC, broth-dilution microtiter test, Staphylococcus aureus; assay type: cell-based
Excerpt: as §1

[3] = system: Staphylococcus epidermidis EPI1; assay: MIC, standard agar-dilution assay, Staphylococcus epidermidis EPI1; assay type: cell-based
Mycoplasma hyorhinis = assay: MIC, broth-dilution microtiter test, Mycoplasma hyorhinis; assay type: cell-based; details: Mycoplasma hyorhinis, broth-dilution microtiter
Excerpt: as §1

[4] = system: Haemophilus influenzae Holt; assay: MIC, standard agar-dilution assay, Haemophilus influenzae Holt; assay type: cell-based
Mycoplasma gallisepticum = assay: MIC, broth-dilution microtiter test, Mycoplasma gallisepticum; assay type: cell-based; details: Mycoplasma gallisepticum, broth-dilution microtiter
Excerpt: as §1

[5] = system: Pasteurella multocida 17E; assay: MIC, broth-dilution microtiter test, Pasteurella multocida 17E; assay type: cell-based; details: Pasteurella multocida 17E, bovine isolate, broth-dilution microtiter
Excerpt: as §1

Streptococcus Group 9960 = assay: MIC, standard agar-dilution assay, Streptococcus Group 9960; assay type: cell-based; details: Streptococcus Group 9960, agar dilution
[6] = system: Pasteurella hemolytica 22C; assay: MIC, broth-dilution microtiter test, Pasteurella hemolytica 22C; assay type: cell-based
Excerpt: as §1

Mycoplasma synoviae = assay: MIC, broth-dilution microtiter test, Mycoplasma synoviae; assay type: cell-based
Excerpt: as §1

[7] = system: Streptococcus pyogenes C203; assay: In vivo protection of mice experimentally infected with S. pyogenes C203; details: mice, doses given 1 and 4 hours post-infection; for ED50: Streptococcus pyogenes
Description: The C-20 modified derivatives of this invention have shown in vivo antimicrobial activity against experimentally-induced infections in laboratory animals. When two doses of test compound were administered to mice experimentally infected with S. pyogenes C203, the activity observed was measured as an ED50 value [effective dose in mg/kg to protect 50% of the test animals: see Warren Wick, et al., J. Bacteriol. 81, 233-235 (1961)].

[8] = system: Staphylococcus aureus X1.1; assay: MIC, standard agar-dilution assay, Staphylococcus aureus X1.1; assay type: cell-based
Streptococcus bovis 80 = assay: MIC, broth-dilution microtiter test, Streptococcus bovis 80; assay type: cell-based
Excerpt: as §1

[9] = system: Streptococcus pyogenes C203; assay: MIC, standard agar-dilution assay, Streptococcus pyogenes C203; assay type: cell-based
[10] = system: Staphylococcus aureus V41; assay: MIC, standard agar-dilution assay, Staphylococcus aureus V41; assay type: cell-based
[11] = system: Staphylococcus epidermidis EPI2; assay: MIC, standard agar-dilution assay, Staphylococcus epidermidis EPI2; assay type: cell-based
[12] = system: Staphylococcus aureus X400; assay: MIC, standard agar-dilution assay, Staphylococcus aureus X400; assay type: cell-based
[13] = system: Streptococcus pneumoniae Park I; assay: microbe, parasite or virus in culture; assay type: cell-based
[14] = system: Streptococcus Group D X66; assay: MIC, standard agar-dilution assay, Streptococcus Group D X66; assay type: cell-based; details: Streptococcus Group D X66, agar dilution
[15] = system: Haemophilus influenzae R252; assay: MIC, standard agar-dilution assay, Haemophilus influenzae R252; assay type: cell-based; details: Haemophilus influenzae R252; ampicillin-resistant strain; agar dilution
[16] = Pasteurella multocida 60A, avian isolate, broth-dilution microtiter
[17] = Staphylococcus aureus S13E, agar dilution
[18] = Staphylococcus epidermidis EPI1, agar dilution
[19] = Haemophilus influenzae Holt, ampicillin-sensitive strain, agar dilution
[20] = Pasteurella hemolytica 22C, broth-dilution microtiter
[21] = Mycoplasma synoviae, broth-dilution microtiter
[22] = Staphylococcus aureus X1.1, agar dilution
[23] = Streptococcus bovis 80, broth-dilution microtiter
[24] = Streptococcus pyogenes C203, agar dilution
[25] = Staphylococcus aureus V41, penicillin-resistant strain, agar dilution
[26] = Staphylococcus epidermidis EPI2, agar dilution
[27] = Staphylococcus aureus X400, methicillin-resistant strain, agar dilution
[28] = Streptococcus pneumoniae Park I, agar dilution

CCOC(=O)c1ccc(OCCC2CC(C)C(=O)C=CC(C)=CC(COC3OC(C)C(O)C(OC)C3OC)C(CC)OC(=O)CC(O)C(C)C2OC2OC(C)C(O)C(N(C)C)C2O)cc1 (centres unmarked) [Compound 38, 20-DH-20-O-[p-(Ethoxycarbonyl)phenyl]desmycosin] showed an MIC ([1]; Pasteurella multocida, 60A) of 50 µg/mL (≈ 54.2 µM), an MIC ([2]; Staphylococcus aureus, S13E) of 0.5 µg/mL (≈ 0.542 µM) and an MIC (Staphylococcus aureus) of 0.78 µg/mL (≈ 0.846 µM). It also gave an MIC ([3]; Staphylococcus epidermidis, EPI1) of 0.5 µg/mL (≈ 0.542 µM), an MIC (Mycoplasma hyorhinis; read-out: MIC) of 25 µg/mL (≈ 27.1 µM) and an MIC ([4]; Haemophilus influenzae) of 16 µg/mL (≈ 17.4 µM). It also gave an MIC (Mycoplasma gallisepticum; Mycoplasmoides gallisepticum, read-out: MIC) of 0.39 µg/mL (≈ 0.423 µM), an MIC ([5]; read-out: MIC) of 25 µg/mL (≈ 27.1 µM) and an MIC (Streptococcus Group 9960; GROUP9960, read-out: MIC) of 16 µg/mL (≈ 17.4 µM). The MIC ([6]; Pasteurella, 22C) was 50 µg/mL (≈ 54.2 µM), the MIC (Mycoplasma synoviae; Mycoplasmopsis synoviae) was 1.56 µg/mL (≈ 1.69 µM) and the ED50 ([7]; C203, sc, subcutaneous, read-out: ED50, Subcutaneous) was > 10 mg/kg. The ED50 ([7]; C203, oral, read-out: ED50, Oral) was 35 mg/kg, the MIC ([8]; Staphylococcus aureus, X1.1) was 0.5 µg/mL (≈ 0.542 µM) and the MIC (Streptococcus bovis 80; Streptococcus equinus, 80) was 0.78 µg/mL (≈ 0.846 µM). For the same compound, the MIC ([9]; Streptococcus pyogenes, C203) was 0.5 µg/mL (≈ 0.542 µM), the MIC ([10]; Staphylococcus aureus, V41) was 0.5 µg/mL (≈ 0.542 µM) and the MIC ([11]; Staphylococcus epidermidis, EPI2) was 0.25 µg/mL (≈ 0.271 µM). The MIC ([12]; Staphylococcus aureus, X400) was 0.5 µg/mL (≈ 0.542 µM), the MIC ([13]; Streptococcus pneumoniae) was 1 µg/mL (≈ 1.08 µM) and the MIC ([14]; read-out: MIC) was 8 µg/mL (≈ 8.68 µM).

CCC1OC(=O)CC(O)C(C)C(OC2OC(C)C(O)C(N(C)C)C2O)C(CCOc2ncnc3ccccc23)CC(C)C(=O)C=CC(C)=CC1COC1OC(C)C(O)C(OC)C1OC (centres unmarked) [Compound 51, 20-DH-20-O-(Quinazolin-4-yl)desmycosin] gave an MIC [1, 16] of 12.5 µg/mL (≈ 13.9 µM), an MIC [2, 17] of 0.25 µg/mL (≈ 0.277 µM) and an MIC (Staphylococcus aureus; broth-dilution microtiter) of 0.78 µg/mL (≈ 0.865 µM). For the same compound, the MIC [3, 18] was 0.25 µg/mL (≈ 0.277 µM), the MIC (Mycoplasma hyorhinis) was 12.5 µg/mL (≈ 13.9 µM) and the MIC [4, 19] was 16 µg/mL (≈ 17.7 µM). For the same compound, the MIC (Mycoplasma gallisepticum) was ≤ 0.048 µg/mL, the MIC [5] was 12.5 µg/mL (≈ 13.9 µM) and the MIC (Streptococcus Group 9960) was 4 µg/mL (≈ 4.43 µM). The MIC [6, 20] was “-- (Not active at 50 mcg/ml, the highest level tested)”, the MIC (Mycoplasma synoviae; [21]) was 0.39 µg/mL (≈ 0.432 µM) and the “ED50, Oral” value ([7]; oral) was > 50 mg/kg × 2. For the same compound, the “ED50, Subcutaneous” value ([7]; subcutaneous) was 5.4 mg/kg × 2, the MIC [8, 22] was 0.25 µg/mL (≈ 0.277 µM) and the MIC [15] was 32 µg/mL (≈ 35.5 µM). It also gave an MIC (Streptococcus bovis 80; [23]) of 0.78 µg/mL (≈ 0.865 µM), an MIC [9, 24] of 0.5 µg/mL (≈ 0.554 µM) and an MIC [10, 25] of 0.25 µg/mL (≈ 0.277 µM). For the same compound, the MIC [11, 26] was 0.12 µg/mL (≈ 0.133 µM), the MIC [12, 27] was 0.5 µg/mL (≈ 0.554 µM) and the MIC [13, 28] was 0.5 µg/mL (≈ 0.554 µM). It also gave an MIC [14] of 4 µg/mL (≈ 4.43 µM).

CCC1OC(=O)CC(O)C(C)C(OC2OC(C)C(O)C(N(C)C)C2O)C(CCOc2ccc(CN3CCCCCC3)cc2)CC(C)C(=O)C=CC(C)=CC1COC1OC(C)C(O)C(OC)C1OC (centres unmarked) [Compound 42, 20-DH-20-O-[p-(Hexahydroazepin-1-ylmethyl)phenyl]desmycosin] showed an MIC [1, 16] of 12.5 µg/mL (≈ 13 µM), an MIC [2, 17] of 0.5 µg/mL (≈ 0.52 µM) and an MIC (Staphylococcus aureus; broth-dilution microtiter) of 1.56 µg/mL (≈ 1.62 µM). It also gave an MIC [3, 18] of 0.5 µg/mL (≈ 0.52 µM), an MIC (Mycoplasma hyorhinis) of 25 µg/mL (≈ 26 µM) and an MIC [4, 19] of 32 µg/mL (≈ 33.3 µM). It also gave an MIC (Mycoplasma gallisepticum) of 0.39 µg/mL (≈ 0.406 µM), an MIC [5] of 12.5 µg/mL (≈ 13 µM) and an MIC (Streptococcus Group 9960) of 8 µg/mL (≈ 8.32 µM). The MIC [6, 20] was 12.5 µg/mL (≈ 13 µM), the MIC (Mycoplasma synoviae; [21]) was 0.195 µg/mL (≈ 0.203 µM) and the “ED50, Oral” value ([7]; oral) was > 100 mg/kg × 2. The “ED50, Subcutaneous” value ([7]; subcutaneous) was > 25 mg/kg × 2, the MIC [8, 22] was 0.5 µg/mL (≈ 0.52 µM) and the MIC [15] was 32 µg/mL (≈ 33.3 µM). For the same compound, the MIC (Streptococcus bovis 80; [23]) was 3.12 µg/mL (≈ 3.25 µM), the MIC [9, 24] was 0.5 µg/mL (≈ 0.52 µM) and the MIC [10, 25] was 0.1 µg/mL (≈ 0.104 µM). It also gave an MIC [11, 26] of 0.25 µg/mL (≈ 0.26 µM), an MIC [12, 27] of 1 µg/mL (≈ 1.04 µM) and an MIC [14] of 8 µg/mL (≈ 8.32 µM).

CCC1OC(=O)CC(O)C(C)C(OC2OC(C)CC(N(C)C)C2O)C(CCOc2ccccc2)CC(C)C(=O)C=CC(C)=CC1COC1OC(C)C(O)C(OC)C1OC (centres unmarked) [Compound 70, 20-DH-20-O-Phenyl-4'-deoxydesmycosin] gave an MIC [1, 16] of 12.5 µg/mL (≈ 15 µM), an MIC [2, 17] of 0.25 µg/mL (≈ 0.3 µM) and an MIC (Staphylococcus aureus; broth-dilution microtiter) of 0.78 µg/mL (≈ 0.935 µM). It also gave an MIC [3, 18] of 0.25 µg/mL (≈ 0.3 µM), an MIC (Mycoplasma hyorhinis) of 12.5 µg/mL (≈ 15 µM) and an MIC [4, 19] of 4 µg/mL (≈ 4.8 µM). The MIC (Mycoplasma gallisepticum) was 0.39 µg/mL (≈ 0.468 µM), the MIC [5] was 12.5 µg/mL (≈ 15 µM) and the MIC (Streptococcus Group 9960) was 4 µg/mL (≈ 4.8 µM). For the same compound, the MIC [6, 20] was 50 µg/mL (≈ 59.9 µM), the MIC (Mycoplasma synoviae; [21]) was 0.78 µg/mL (≈ 0.935 µM) and the “ED50, Oral” value ([7]; oral) was 7 mg/kg × 2. For the same compound, the “ED50, Subcutaneous” value ([7]; subcutaneous) was 3.1 mg/kg × 2, the MIC [8, 22] was 0.25 µg/mL (≈ 0.3 µM) and the MIC [15] was 4 µg/mL (≈ 4.8 µM). For the same compound, the MIC (Streptococcus bovis 80; [23]) was 6.25 µg/mL (≈ 7.49 µM), the MIC [9, 24] was 0.5 µg/mL (≈ 0.599 µM) and the MIC [10, 25] was 0.25 µg/mL (≈ 0.3 µM). For the same compound, the MIC [11, 26] was 0.12 µg/mL (≈ 0.144 µM), the MIC [12, 27] was 0.25 µg/mL (≈ 0.3 µM) and the MIC [13, 28] was 0.5 µg/mL (≈ 0.599 µM). For the same compound, the MIC [14] was 2 µg/mL (≈ 2.4 µM).
